Source: PubChem BioAssay (NCI)
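These data come from cells grown in 96-well plates and exposed to compound for 48 hours at five concentrations. The concentration for 50% growth inhibition is given as GI50. TGI: total growth inhibition.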

What was measured:
Test in all cases: growth of human tumour cells (NCI), 48 h
A498 renal = test system: A498 renal
SW-620 colon = test system: SW-620 colon
SNB-75 CNS = test system: SNB-75 CNS
SNB-19 CNS = test system: SNB-19 CNS
A549 NSCLC = test system: A549 NSCLC
BT-549 breast = test system: BT-549 breast
MALME-3M melanoma = test system: MALME-3M melanoma
MOLT-4 leukemia = test system: MOLT-4 leukemia
SK-MEL-2 melanoma = test system: SK-MEL-2 melanoma
SK-MEL-28 melanoma = test system: SK-MEL-28 melanoma
HS 578T breast = test system: HS 578T breast
OVCAR-8 ovarian = test system: OVCAR-8 ovarian
OVCAR-4 ovarian = test system: OVCAR-4 ovarian
UACC-257 melanoma = test system: UACC-257 melanoma
DU-145 prostate = test system: DU-145 prostate
U251 CNS = test system: U251 CNS
COLO 205 colon = test system: COLO 205 colon
SK-OV-3 ovarian = test system: SK-OV-3 ovarian
M14 melanoma = test system: M14 melanoma
HOP-92 NSCLC = test system: HOP-92 NSCLC
MDA-MB-231 breast = test system: MDA-MB-231 breast
MDA-MB-435 = test system: MDA-MB-435
HL-60(TB) leukemia = test system: HL-60(TB) leukemia
NCI-H226 lung = test system: NCI-H226 lung
RPMI-8226 leukemia = test system: RPMI-8226 leukemia
SF-268 CNS = test system: SF-268 CNS
NCI-H460 lung = test system: NCI-H460 lung
MCF7 breast = test system: MCF7 breast
CAKI-1 renal = test system: CAKI-1 renal
OVCAR-5 ovarian = test system: OVCAR-5 ovarian
SR leukemia = test system: SR leukemia
SF-539 CNS = test system: SF-539 CNS
KM12 colon = test system: KM12 colon
NCI-H23 lung = test system: NCI-H23 lung
NCI/ADR-RES ovarian = test system: NCI/ADR-RES ovarian
SF-295 CNS = test system: SF-295 CNS
OVCAR-3 ovarian = test system: OVCAR-3 ovarian
HCT-116 colon = test system: HCT-116 colon
RXF 393 renal = test system: RXF 393 renal
UACC-62 melanoma = test system: UACC-62 melanoma
HT29 colon = test system: HT29 colon
EKVX NSCLC = test system: EKVX NSCLC
ACHN renal = test system: ACHN renal
T-47D breast = test system: T-47D breast
PC-3 prostate = test system: PC-3 prostate
LOX IMVI melanoma = test system: LOX IMVI melanoma
IGROV1 ovarian = test system: IGROV1 ovarian
SN12C renal = test system: SN12C renal
HCC-2998 colon = test system: HCC-2998 colon
HCT-15 colon = test system: HCT-15 colon
UO-31 renal = test system: UO-31 renal
786-0 renal = test system: 786-0 renal
CCRF-CEM leukemia = test system: CCRF-CEM leukemia
NCI-H522 lung = test system: NCI-H522 lung
HOP-62 NSCLC = test system: HOP-62 NSCLC
TK-10 renal = test system: TK-10 renal
K-562 leukemia = test system: K-562 leukemia

COC(=O)c1nc(-c2ccccc2)oc1S(=O)(=O)Cc1ccccc1
GI50 (A498 renal): 15.9 µM | TGI (A498 renal): 29.7 µM | GI50 (SW-620 colon): 2.05 µM | TGI (SW-620 colon): 4.14 µM | GI50 (SNB-75 CNS): 14.1 µM | TGI (SNB-75 CNS): 27.1 µM | GI50 (SNB-19 CNS): 16.3 µM | TGI (SNB-19 CNS): 31.3 µM | GI50 (A549 NSCLC): 17.5 µM | TGI (A549 NSCLC): 33.6 µM | GI50 (BT-549 breast): 6.5 µM | TGI (BT-549 breast): 19.1 µM | GI50 (MALME-3M melanoma): 1.73 µM | TGI (MALME-3M melanoma): 3.44 µM | GI50 (MOLT-4 leukemia): 2.11 µM | TGI (MOLT-4 leukemia): 5.57 µM | GI50 (SK-MEL-2 melanoma): 12.7 µM | TGI (SK-MEL-2 melanoma): 26.9 µM | GI50 (SK-MEL-28 melanoma): 7.15 µM | TGI (SK-MEL-28 melanoma): 20.4 µM | GI50 (HS 578T breast): 19.2 µM | TGI (HS 578T breast): 60.1 µM | GI50 (OVCAR-8 ovarian): 12.1 µM | TGI (OVCAR-8 ovarian): 28.2 µM | GI50 (OVCAR-4 ovarian): 1.82 µM | TGI (OVCAR-4 ovarian): 3.4 µM | GI50 (UACC-257 melanoma): 13.7 µM | TGI (UACC-257 melanoma): 27.2 µM | GI50 (DU-145 prostate): 3.46 µM | TGI (DU-145 prostate): 10.9 µM | GI50 (U251 CNS): 15.5 µM | TGI (U251 CNS): 29 µM | GI50 (COLO 205 colon): 1.84 µM | TGI (COLO 205 colon): 3.66 µM | GI50 (SK-OV-3 ovarian): 70.2 µM | TGI (SK-OV-3 ovarian): > 100 µM | GI50 (M14 melanoma): 3.87 µM | TGI (M14 melanoma): 16.3 µM | GI50 (HOP-92 NSCLC): 1.61 µM | TGI (HOP-92 NSCLC): 3.12 µM | GI50 (MDA-MB-231 breast): 2.18 µM | TGI (MDA-MB-231 breast): 5.24 µM | GI50 (MDA-MB-435): 11.1 µM | TGI (MDA-MB-435): 23.6 µM | GI50 (HL-60(TB) leukemia): 2.3 µM | TGI (HL-60(TB) leukemia): 6.22 µM | GI50 (NCI-H226 lung): 13.9 µM | TGI (NCI-H226 lung): 31.4 µM | GI50 (RPMI-8226 leukemia): 3.05 µM | TGI (RPMI-8226 leukemia): 9.51 µM | GI50 (SF-268 CNS): 16.1 µM | TGI (SF-268 CNS): 32.8 µM | GI50 (NCI-H460 lung): 19.8 µM | TGI (NCI-H460 lung): 40 µM | GI50 (MCF7 breast): 2.72 µM | TGI (MCF7 breast): 11.1 µM | GI50 (CAKI-1 renal): 1.84 µM | TGI (CAKI-1 renal): 3.42 µM | GI50 (OVCAR-5 ovarian): 3.12 µM | TGI (OVCAR-5 ovarian): 11.3 µM | GI50 (SR leukemia): 3.03 µM | TGI (SR leukemia): 16.5 µM | GI50 (SF-539 CNS): 11.2 µM | TGI (SF-539 CNS): 23.7 µM | GI50 (KM12 colon): 20.8 µM | TGI (KM12 colon): 39.2 µM | GI50 (NCI-H23 lung): 16.2 µM | TGI (NCI-H23 lung): 34.4 µM | GI50 (NCI/ADR-RES ovarian): 16.9 µM | TGI (NCI/ADR-RES ovarian): 36.3 µM | GI50 (SF-295 CNS): 16.5 µM | TGI (SF-295 CNS): 36.3 µM | GI50 (OVCAR-3 ovarian): 1.94 µM | TGI (OVCAR-3 ovarian): 3.52 µM | GI50 (HCT-116 colon): 2.58 µM | TGI (HCT-116 colon): 6.23 µM | GI50 (RXF 393 renal): 1.87 µM | TGI (RXF 393 renal): 3.5 µM | GI50 (UACC-62 melanoma): 6.52 µM | TGI (UACC-62 melanoma): 20 µM | GI50 (HT29 colon): 2.44 µM | TGI (HT29 colon): 5.79 µM | GI50 (EKVX NSCLC): 14.4 µM | TGI (EKVX NSCLC): 30.1 µM | GI50 (ACHN renal): 1.77 µM | TGI (ACHN renal): 3.15 µM | GI50 (T-47D breast): 2.17 µM | TGI (T-47D breast): 5.95 µM | GI50 (PC-3 prostate): 15 µM | TGI (PC-3 prostate): 29.4 µM | GI50 (LOX IMVI melanoma): 2.88 µM | TGI (LOX IMVI melanoma): 8.7 µM | GI50 (IGROV1 ovarian): 2.75 µM | TGI (IGROV1 ovarian): 7.21 µM | GI50 (SN12C renal): 4.27 µM | TGI (SN12C renal): 15.5 µM | GI50 (HCC-2998 colon): 19 µM | TGI (HCC-2998 colon): 36.3 µM | GI50 (HCT-15 colon): 1.79 µM | TGI (HCT-15 colon): 3.58 µM | GI50 (UO-31 renal): 1.48 µM | TGI (UO-31 renal): 2.84 µM | GI50 (786-0 renal): 3.25 µM | TGI (786-0 renal): 11 µM | GI50 (CCRF-CEM leukemia): 2.91 µM | TGI (CCRF-CEM leukemia): 8.41 µM | GI50 (NCI-H522 lung): 1.52 µM | TGI (NCI-H522 lung): 3.29 µM | GI50 (HOP-62 NSCLC): 26.8 µM | TGI (HOP-62 NSCLC): > 100 µM | GI50 (TK-10 renal): 1.74 µM | TGI (TK-10 renal): 3.19 µM | GI50 (K-562 leukemia): 2.07 µM | TGI (K-562 leukemia): 5.29 µM
